Measurements: patent US10457685B2, “[1,2,3]triazolo[4,5-D]pyrimidine derivatives with affinity for the type-2 cannabinoid receptor” (Hoffmann-La Roche Inc., priority 2016, dated 2019)

Experiments:
[1] = target: human CB1 receptor (CNR1) (Homo sapiens (Human), UniProt P21554); assay: Radioligand binding assay ([3H]-CP-55,940), membranes of HEK cells expressing human CNR1; details: 1.5 nM [3H]-CP-55,940, HEK cell membranes, 1 h at 30° C.
Protocol: (§1) Radioligand Binding Assay
(§2) The affinity of the compounds of the invention for cannabinoid receptors was determined using recommended amounts of membrane preparations (PerkinElmer) of human embryonic kidney (HEK) cells expressing the human CNR1 or CNR2 receptors in conjunction with 1.5 or 2.6 nM [3H]-CP-55,940 (Perkin Elmer) as radioligand, respectively. Binding was performed in binding buffer (50 mM Tris, 5 mM MgCl2, 2.5 mM EDTA, and 0.5% (wt/vol) fatty acid free BSA, pH 7.4 for CB1 receptor and 50 mM Tris, 5 mM MgCl2, 2.5 mM EGTA, and 0.1% (wt/vol) fatty acid free BSA, pH 7.4 for CB2 receptor) in a total volume of 0.2 mL for 1 h at 30° C. shaking. The reaction was terminated by rapid filtration through microfiltration plates coated with 0.5% polyethylenimine (UniFilter GF/B filter plate; Packard). Bound radioactivity was analyzed for Ki using nonlinear regression analysis (Activity Base, ID Business Solution, Limited), with the Kd values for [^3H]CP55,940 determined from saturation experiments.

[2] = target: human CB2 receptor (CNR2) (Homo sapiens (Human), UniProt P34972); assay: Radioligand binding assay ([3H]-CP-55,940), membranes of HEK cells expressing human CNR2; details: 2.6 nM [3H]-CP-55,940, HEK cell membranes, 1 h at 30° C.
Sequence of human CB2 receptor (CNR2) (P34972 whole entry): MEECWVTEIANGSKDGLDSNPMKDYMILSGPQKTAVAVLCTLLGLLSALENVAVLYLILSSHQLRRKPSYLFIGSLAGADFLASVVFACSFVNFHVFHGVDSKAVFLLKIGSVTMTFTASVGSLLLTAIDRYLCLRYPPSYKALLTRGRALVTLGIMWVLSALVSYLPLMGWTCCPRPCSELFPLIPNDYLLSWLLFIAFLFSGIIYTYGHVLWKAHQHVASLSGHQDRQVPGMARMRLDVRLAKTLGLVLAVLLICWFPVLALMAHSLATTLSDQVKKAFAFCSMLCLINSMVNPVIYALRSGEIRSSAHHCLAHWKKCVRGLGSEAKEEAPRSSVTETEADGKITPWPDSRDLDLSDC
Protocol: as §1, §2

Sequence of human CB1 receptor (CNR1) (P21554 whole entry): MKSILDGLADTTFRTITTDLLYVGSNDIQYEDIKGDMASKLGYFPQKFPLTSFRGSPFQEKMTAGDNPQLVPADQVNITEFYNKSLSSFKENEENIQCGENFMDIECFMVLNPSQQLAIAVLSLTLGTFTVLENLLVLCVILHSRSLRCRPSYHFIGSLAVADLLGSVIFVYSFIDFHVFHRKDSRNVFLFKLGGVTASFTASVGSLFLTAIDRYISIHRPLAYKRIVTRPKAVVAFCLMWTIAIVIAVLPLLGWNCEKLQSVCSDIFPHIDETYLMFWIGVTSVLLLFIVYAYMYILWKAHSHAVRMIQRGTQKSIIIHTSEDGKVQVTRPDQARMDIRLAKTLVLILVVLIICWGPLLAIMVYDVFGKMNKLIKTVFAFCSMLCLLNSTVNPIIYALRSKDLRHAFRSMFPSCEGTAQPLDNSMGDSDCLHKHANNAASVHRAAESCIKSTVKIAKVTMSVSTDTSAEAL

Row | Compound | Ki [1] [nM] | Ki [2] [nM]
1 | 5-tert-butyl-7-(3,3-Difluoropyrrolidin-1-yl)-3-[[2-(pyridin-2-yldisulfanyl)phenyl]methyl]triazolo[4,5-d]pyrimidine [Example 37] | 2580 | 541
2 | Cc1nonc1Cn1nnc2c(N3CC[C@H](S)C3)nc(C(C)(C)C)nc21 (single isomer, unassigned) [Example 10] | > 10000 | 153
3 | CC(C)(C)c1nc(N2CC[C@H](S)C2)c2nnn(Cc3ccccc3Cl)c2n1 (single isomer, unassigned) [Example 12] | 2810 | 2500
4 | CC(C)(C)c1nc(N2CC[C@@H](S)C2)c2nnn(Cc3ccccc3Cl)c2n1 (single isomer, unassigned) [Example 13] | > 10000 | 1560
5 | CC(C)(C)c1nc(N2CC[C@H](O)C2)c2nnn(Cc3ccccc3S(=O)(=O)F)c2n1 [Example 1, 2-[[5-tert-Butyl-7-[(3S)-3-hydroxypyrrolidin-1-yl]triazolo[4,5-d]pyrimidin-3-yl]methyl]benzenesulfonyl fluoride] | > 10000 | 16
6 | CC(C)(C)c1nc(N2CCC(F)(F)C2)c2nnn(Cc3ccccc3CS(=O)(=O)F)c2n1 [Example 2, (2-{[5-tert-Butyl-7-(3,3-difluoropyrrolidin-1-yl)-3H-[1,2,3]triazolo[4,5-d]pyrimidin-3-yl]methyl}phenyl)methanesulfonyl fluoride] | 1960 | 11
7 | CC(C)(C)c1nc(N2CC[C@H](O)C2)c2nnn(Cc3ccccc3CS(=O)(=O)F)c2n1 [Example 3, [2-({5-tert-Butyl-7-[(3S)-3-hydroxypyrrolidin-1-yl]-3H-[1,2,3]1 triazolo[4,5-d]pyrimidin-3-yl}methyl)phenyl]methanesulfonyl fluoride] | > 10000 | 283
8 | CC(C)(C)c1nc(N2CCC(F)(F)C2)c2nnn(Cc3ccccc3CN=C=S)c2n1 [Example 4, 5-tert-Butyl-7-(3,3-difluoropyrrolidin-1-yl)-3-{[2-(isothiocyanatomethyl)phenyl]methyl}-3H-[1,2,3]triazolo[4,5-d]pyrimidine] | 3830 | 88
9 | CC(C)(C)c1nc(N2CC[C@H](O)C2)c2nnn(Cc3ccccc3CN=C=S)c2n1 [Example 5, (3S)-1-(5-tert-Butyl-3-{[2-(isothiocyanatomethyl)phenyl]methyl}-3H-[1,2,3]triazolo[4,5-d]pyrimidin-7-yl)pyrrolidin-3-ol] | > 10000 | 91
10 | CC(C)(C)c1nc(N2CCC(F)(F)C2)c2nnn(Cc3ccccc3N=C=S)c2n1 [Example 6, 5-tert-Butyl-7-(3,3-difluoropyrrolidin-1-yl)-3-[(2-isothiocyanatophenyl)methyl]-3H-[1,2,3]triazolo[4,5-d]pyrimidine] | 5360 | 300
11 | CC(C)(C)c1nc(N2CCC(F)(F)C2)c2nnn(Cc3ccccc3S(=O)(=O)F)c2n1 [Example 7, 2-{[5-tert-Butyl-7-(3,3-difluoropyrrolidin-1-yl)-3H-[1,2,3]triazolo[4,5-d]pyrimidin-3-yl]methyl}benzene-1-sulfonyl fluoride] | 931 | 6
12 | CC(C)(C)c1nc(N2CCC(S)C2)c2nnn(Cc3ccccc3Cl)c2n1 (stereo not shown) [Example 8, 1-{5-tert-Butyl-3-[(2-chlorophenyl)methyl]-3H-[1,2,3]triazolo[4,5-d]pyrimidin-7-yl}pyrrolidine-3-thiol] | 1470 | 85
13 | CC(C)(C)c1nc(N2CC(S)C2)c2nnn(Cc3ccccc3Cl)c2n1 [Example 9, 1-{5-tert-Butyl-3-[(2-chlorophenyl)methyl]-3H-[1,2,3]triazolo[4,5-d]pyrimidin-7-yl}azetidine-3-thiol] | > 10000 | 383
14 | Cc1nonc1Cn1nnc2c(N3CCC(N=[N+]=[N-])C3)nc(C(C)(C)C)nc21 (stereo not shown) [Example 14, 7-(3-Azidopyrrolidin-1-yl)-5-tert-butyl-3-[(4-methyl-1,2,5-oxadiazol-3-yl)methyl]-3H-[1,2,3]triazolo[4,5-d]pyrimidine] | > 10000 | 137
15 | Cc1nonc1Cn1nnc2c(N3CCC(N=C=S)C3)nc(C(C)(C)C)nc21 (stereo not shown) [Example 16, 5-tert-Butyl-7-(3-isothiocyanatopyrrolidin-1-yl)-3-[(4-methyl-1,2,5-oxadiazol-3-yl)methyl]-3H-[1,2,3]triazolo[4,5-d]pyrimidine] | > 10000 | 426
16 | CC(C)(C)c1nc(N2CCC(N=[N+]=[N-])C2)c2nnn(Cc3ccccc3Cl)c2n1 (stereo not shown) [Example 17, 7-(3-Azidopyrrolidin-1-yl)-5-tert-butyl-3-[(2-chlorophenyl)methyl]-3H-[1,2,3]triazolo[4,5-d]pyrimidine] | 2290 | 210
17 | CSSC1CCN(c2nc(C(F)(F)c3ccccc3)nc3c2nnn3Cc2nonc2C)C1 (stereo not shown) [Example 18, 5-[Difluoro(phenyl)methyl]-7-[3-(methyldisulfanyl)pyrrolidin-1-yl]-3-[(4-methyl-1,2,5-oxadiazol-3-yl)methyl]-3H-[1,2,3]triazolo[4,5-d]pyrimidine] | > 10000 | 1030
18 | CSSC1CCN(c2nc(C(F)(F)c3ccccc3)nc3c2nnn3Cc2ccccc2Cl)C1 (stereo not shown) [Example 19, 3-[(2-Chlorophenyl)methyl]-5-[difluoro(phenyl)methyl]-7-[3-(methyldisulfanyl)pyrrolidin-1-yl]-3H-[1,2,3]triazolo[4,5-d]pyrimidine] | > 10000 | 1370
19 | Cc1nonc1Cn1nnc2c(N3CCC(N=[N+]=[N-])C3)nc(C(F)(F)c3ccccc3)nc21 (stereo not shown) [Example 20, 7-(3-Azidopyrrolidin-1-yl)-5-[difluoro(phenyl)methyl]-3-[(4-methyl-1,2,5-oxadiazol-3-yl)methyl]-3H-[1,2,3]triazolo[4,5-d]pyrimidine] | > 10000 | 1300
20 | [N-]=[N+]=NC1CCN(c2nc(C(F)(F)c3ccccc3)nc3c2nnn3Cc2ccccc2Cl)C1 (stereo not shown) [Example 21, 7-(3-Azidopyrrolidin-1-yl)-3-[(2-chlorophenyl)methyl]-5-[difluoro(phenyl)methyl]-3H-[1,2,3]triazolo[4,5-d]pyrimidine] | 2450 | 729
21 | FC(F)(c1ccccc1)c1nc(N2CCC(N=C=S)C2)c2nnn(Cc3ccccc3Cl)c2n1 (stereo not shown) [Example 22, 3-[(2-Chlorophenyl)methyl]-5-[difluoro(phenyl)methyl]-7-(3-isothiocyanatopyrrolidin-1-yl)-3H-[1,2,3]triazolo[4,5-d]pyrimidine] | 6440 | 1240
22 | Cc1nonc1Cn1nnc2c(N3CCC(N=C=S)C3)nc(C(F)(F)c3ccccc3)nc21 (stereo not shown) [Example 23, 5-[Difluoro(phenyl)methyl]-7-(3-isothiocyanatopyrrolidin-1-yl)-3-[(4-methyl-1,2,5-oxadiazol-3-yl)methyl]-3H-[1,2,3]triazolo[4,5-d]pyrimidine] | 1450 | 1460
23 | O=S(=O)(F)c1ccccc1Cn1nnc2c(N3CC[C@H](O)C3)nc(C(F)(F)c3ccccc3)nc21 [Example 24, 2-[[5-[Difluoro(phenyl)methyl]-7-[(3S)-3-hydroxypyrrolidin-1-yl]triazolo[4,5-d]pyrimidin-3-yl]methyl]benzenesulfonyl fluoride] | 3290 | 1130
